From publication PMC8640094, “Diaportones A–C: Three New Metabolites From Endophytic Fungus Diaporthe foeniculina BZM-15” (Frontiers in Chemistry, 2021)
Converted amounts (≈) assume the structure as drawn.

What was measured:
SF-268 (CNS cancer) = assay: MTT cytotoxicity assay, SF-268 cells; type: cell-based, human; conditions: Homo sapiens; for inhibition at 1 µM / inhibition at 2 µM / inhibition at 4 µM / inhibition at 8 µM / inhibition at 16 µM / inhibition at 32 µM / inhibition at 64 µM / inhibition at 128 µM: SF-268, 72 h, SF268 cells, triplicate values, read-out: cell inhibition; for inhibition at 1 µM: c 1.00 μM; for inhibition at 2 µM: c 2.00 μM; for inhibition at 4 µM: c 4.00 μM; for inhibition at 8 µM: c 8.00 μM; for inhibition at 16 µM: c 16.00 μM; for inhibition at 32 µM: c 32.00 μM; for inhibition at 64 µM: c 64.00 μM; for inhibition at 128 µM: c 128.00 μM; for IC50: SF-268, MTT, 72 h, mean ± SD (n = 3), read-out: IC50 SF268
Protocol: (§1) The cytotoxicity of all compounds against three human tumor cell lines, SF-268 (CNS cancer), MCF-7 (breast cancer), and HepG2 (hepatoma cancer), and normal cell line LX-2 was tested using the MTT assay. Adriamycin was used as a positive control. All cells were seeded into 96-well plates at 5 × 10^4 cells/ml and incubated at 37°C under a 5% CO2 atmosphere for 24 h. Then, the tested compounds were added. After 72 h, MTT solution was added into each well, which was further incubated. The cell-free supernatant was removed and formazan crystals were subsequently dissolved in DMSO. Optical density (OD) was recorded at 490 nm on a microplate reader to calculate the IC50 values.

MCF-7 (breast cancer) = assay: MTT cytotoxicity assay, MCF-7 cells; type: cell-based, human; conditions: Homo sapiens; for inhibition at 1 µM / inhibition at 2 µM / inhibition at 4 µM / inhibition at 8 µM / inhibition at 16 µM / inhibition at 32 µM / inhibition at 64 µM / inhibition at 128 µM: MCF7, 72 h, three replicates, read-out: cell inhibition; for inhibition at 1 µM: MCF-7, c 1.00 μM; for inhibition at 2 µM: MCF-7, c 2.00 μM; for inhibition at 4 µM: MCF-7, c 4.00 μM; for inhibition at 8 µM: MCF-7, c 8.00 μM; for inhibition at 16 µM: MCF-7, c 16.00 μM; for inhibition at 32 µM: MCF-7, c 32.00 μM; for inhibition at 64 µM: MCF-7, c 64.00 μM; for inhibition at 128 µM: MCF-7, c 128.00 μM; for IC50: MCF7, MTT, 72 h, mean ± SD (n = 3)
Protocol: as §1, with “Adriamycin was used as a positive control.” left out

HepG2 (hepatoma cancer) = assay: MTT cytotoxicity assay, HepG2 cells; type: cell-based, human; conditions: Homo sapiens; for inhibition at 1 µM / inhibition at 2 µM / inhibition at 4 µM / inhibition at 8 µM / inhibition at 16 µM / inhibition at 32 µM / inhibition at 64 µM / inhibition at 128 µM: HepG2, 72 h, three replicates, read-out: cell inhibition; for inhibition at 1 µM: HepG2, c 1.00 μM; for inhibition at 2 µM: HepG2, c 2.00 μM; for inhibition at 4 µM: HepG2, c 4.00 μM; for inhibition at 8 µM: HepG2, c 8.00 μM; for inhibition at 16 µM: HepG2, c 16.00 μM; for inhibition at 32 µM: HepG2, c 32.00 μM; for inhibition at 64 µM: HepG2, c 64.00 μM; for inhibition at 128 µM: HepG2, c 128.00 μM; for IC50: HepG2, MTT, 72 h, mean ± SD (n = 3)
Protocol: as §1

normal cell line LX-2 = assay: MTT cytotoxicity assay, normal cell line LX-2; type: cell-based; conditions: for inhibition at 1 µM / inhibition at 2 µM / inhibition at 4 µM / inhibition at 8 µM / inhibition at 16 µM / inhibition at 32 µM / inhibition at 64 µM / inhibition at 128 µM / IC50: 72 h; for inhibition at 1 µM: LX-2, c 1.00 μM; for inhibition at 1 µM / inhibition at 2 µM / inhibition at 4 µM / inhibition at 8 µM / inhibition at 16 µM / inhibition at 32 µM / inhibition at 64 µM / inhibition at 128 µM: three replicates; for inhibition at 2 µM: LX-2, c 2.00 μM; for inhibition at 4 µM: LX-2, c 4.00 μM; for inhibition at 8 µM: LX-2, c 8.00 μM; for inhibition at 16 µM: LX-2, c 16.00 μM; for inhibition at 32 µM: LX-2, c 32.00 μM; for inhibition at 64 µM: LX-2, c 64.00 μM; for inhibition at 128 µM: LX-2, c 128.00 μM; for IC50: MTT, mean ± SD (n = 3); for activity on the normal cell line LX-2: in words
Protocol: as §1, with “Adriamycin was used as a positive control.” left out

[1] = tested on: three human cancer cell lines (SF-268, MCF-7, and HepG2); assay: MTT cytotoxicity, summary over three human cancer cell lines; type: cell-based; conditions: for IC50: Homo sapiens, read-out: IC50 values, range over three cell lines
Protocol: as §1

MRSA (JCSC 3063) = assay: Antibacterial assay, broth macrodilution, MRSA; type: cell-based; conditions: Staphylococcus aureus
Protocol: Antibacterial activity of all compounds against MRSA (JCSC 3063) and E. coli (ATCC 8739) was tested by the broth […] method on 96-well plates according to the CLSI recommendation ([Li et al., 2014]).

Compound | inhibition at 1 µM (SF-268 (CNS cancer)) | inhibition at 2 µM (SF-268 (CNS cancer)) | inhibition at 4 µM (SF-268 (CNS cancer)) | inhibition at 8 µM (SF-268 (CNS cancer)) | inhibition at 16 µM (SF-268 (CNS cancer)) | inhibition at 32 µM (SF-268 (CNS cancer)) | inhibition at 64 µM (SF-268 (CNS cancer)) | inhibition at 128 µM (SF-268 (CNS cancer)) | IC50 (SF-268 (CNS cancer)) | inhibition at 1 µM (MCF-7 (breast cancer)) | inhibition at 2 µM (MCF-7 (breast cancer)) | inhibition at 4 µM (MCF-7 (breast cancer)) | inhibition at 8 µM (MCF-7 (breast cancer)) | inhibition at 16 µM (MCF-7 (breast cancer)) | inhibition at 32 µM (MCF-7 (breast cancer)) | inhibition at 64 µM (MCF-7 (breast cancer)) | inhibition at 128 µM (MCF-7 (breast cancer)) | IC50 (MCF-7 (breast cancer)) | inhibition at 1 µM (HepG2 (hepatoma cancer)) | inhibition at 2 µM (HepG2 (hepatoma cancer)) | also measured
CC(C)[C@@H](C)/C=C/[C@@H](C)[C@H]1CCC(=O)[C@]23CC(=O)C4=CC(=O)CC[C@]4(C)[C@H]2CC[C@]13C [compound 7, dankasterone A] | 16.3% | 31.1% | 46.5% | 58.4% | 69.7% | 90.9% | 96.1% | 99.2% | 6.7 ± 0.7 µM | 35.5% | 47.2% | 64.9% | 72.1% | 81% | 98.2% | 97.5% | 98.3% | 3.6 ± 1.1 µM | 31.1% | 39.6% | inhibition at 4 µM (HepG2 (hepatoma cancer)): 49%; inhibition at 8 µM (HepG2 (hepatoma cancer)): 76.9%; inhibition at 16 µM (HepG2 (hepatoma cancer)): 83.3%; inhibition at 32 µM (HepG2 (hepatoma cancer)): 98%; inhibition at 64 µM (HepG2 (hepatoma cancer)): 99%; inhibition at 128 µM (HepG2 (hepatoma cancer)): 98.5%; IC50 (HepG2 (hepatoma cancer)): 4.9 ± 0.9 µM; inhibition at 1 µM (normal cell line LX-2): 14.7%; inhibition at 2 µM (normal cell line LX-2): 18.4%; inhibition at 4 µM (normal cell line LX-2): 26.4%; inhibition at 8 µM (normal cell line LX-2): 31.4%; inhibition at 16 µM (normal cell line LX-2): 33.1%; inhibition at 32 µM (normal cell line LX-2): 43.2%; inhibition at 64 µM (normal cell line LX-2): 81.3%; inhibition at 128 µM (normal cell line LX-2): 92.6%; IC50 (normal cell line LX-2): > 40 µM; activity on the normal cell line LX-2 (normal cell line LX-2): not active; cell inhibition against three human cancer cell lines, in words [1]: good cell inhibition; IC50 [1]: 3.6 to 15.8 µM
CN[C@H](CC(C)C)C(=O)N[C@H]1C(=O)N[C@@H](CC(N)=O)C(=O)N[C@H]2C(=O)N[C@H]3C(=O)N[C@H](C(=O)N[C@H](C(=O)O)c4cc(O)cc(O)c4-c4cc3ccc4O)[C@H](O)c3ccc(c(Cl)c3)Oc3cc2cc(c3O[C@@H]2O[C@H](CO)[C@@H](O)[C@H](O)[C@H]2O[C@H]2C[C@](C)(N)[C@H](O)[C@H](C)O2)Oc2ccc(cc2Cl)[C@H]1O [Vancomycin] |  |  |  |  |  |  |  |  |  |  |  |  |  |  |  |  |  |  |  |  | MIC (MRSA (JCSC 3063)): 1.25 µg/mL (≈ 0.863 µM)
CC(C)[C@@H](C)C=C[C@@H](C)[C@H]1CC[C@@]2(O)C3=CC(=O)C4=CC(=O)CC[C@]4(C)[C@H]3CC[C@]12C [compound 8, 14α-hydroxyergosta-4,7,22-triene-3,6-dione] | 21.4% | 30.2% | 44.3% | 46.8% | 81.4% | 85.3% | 92.4% | 97.3% | 8.3 ± 0.5 µM | 21.5% | 26.3% | 35.6% | 47.3% | 72.4% | 89.1% | 97.3% | 96.2% | 11.4 ± 0.3 µM | 20.3% | 27.1% | inhibition at 4 µM (HepG2 (hepatoma cancer)): 34.1%; inhibition at 8 µM (HepG2 (hepatoma cancer)): 46.7%; inhibition at 16 µM (HepG2 (hepatoma cancer)): 58.6%; inhibition at 32 µM (HepG2 (hepatoma cancer)): 78.4%; inhibition at 64 µM (HepG2 (hepatoma cancer)): 89%; inhibition at 128 µM (HepG2 (hepatoma cancer)): 94.3%; IC50 (HepG2 (hepatoma cancer)): 15.8 ± 1.3 µM; inhibition at 1 µM (normal cell line LX-2): 13.6%; inhibition at 2 µM (normal cell line LX-2): 19.2%; inhibition at 4 µM (normal cell line LX-2): 28%; inhibition at 8 µM (normal cell line LX-2): 35.9%; inhibition at 16 µM (normal cell line LX-2): 41.6%; inhibition at 32 µM (normal cell line LX-2): 48.5%; inhibition at 64 µM (normal cell line LX-2): 73.4%; inhibition at 128 µM (normal cell line LX-2): 90.3%; IC50 (normal cell line LX-2): > 40 µM; activity on the normal cell line LX-2 (normal cell line LX-2): not active; cell inhibition against three human cancer cell lines, in words [1]: good cell inhibition; IC50 [1]: 3.6 to 15.8 µM
